Data from the kinase profiling compilation of Christmann-Franck et al. (2016).
Several values for one entry are separate records, joined by “and”; a condition that tells them apart may be missing. Identical values can stand only once.

What was measured:
Assay in all cases: Caliper, Mobility shift assay off-chip
[1] = target: FRK (human) (UniProt P42685)
[2] = target: NEK6 (human) (UniProt Q9HC98)
[3] = target: TSSK1B (human) (UniProt Q9BXA7)
[4] = target: MKNK2 (human) (UniProt Q9HBH9)
[5] = target: PRKD3 (human) (UniProt O94806)
[6] = target: CAMK2A (human) (UniProt Q9UQM7)
Chain of CAMK2A (human) (Q9UQM7 whole entry, looked up): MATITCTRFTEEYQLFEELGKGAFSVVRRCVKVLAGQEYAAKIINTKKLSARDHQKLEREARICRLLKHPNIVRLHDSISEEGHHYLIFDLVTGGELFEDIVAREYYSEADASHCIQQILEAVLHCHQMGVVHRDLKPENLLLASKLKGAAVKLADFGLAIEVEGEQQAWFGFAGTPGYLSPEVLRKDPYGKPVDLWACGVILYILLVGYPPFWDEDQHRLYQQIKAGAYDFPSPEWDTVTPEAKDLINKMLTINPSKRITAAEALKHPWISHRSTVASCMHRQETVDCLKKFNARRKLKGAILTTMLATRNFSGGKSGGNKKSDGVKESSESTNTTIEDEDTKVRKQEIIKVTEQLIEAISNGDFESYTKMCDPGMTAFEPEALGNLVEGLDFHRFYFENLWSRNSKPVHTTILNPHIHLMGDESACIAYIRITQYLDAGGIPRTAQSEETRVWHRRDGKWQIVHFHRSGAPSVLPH

[7] = target: TXK (human) (UniProt P42681)
[8] = target: HIPK1 (human) (UniProt Q86Z02)
[9] = target: ROS1 (human) (UniProt P08922)
[10] = target: PHKG1 (human) (UniProt Q16816)
[11] = target: MARK4 (human) (UniProt Q96L34)
[12] = target: DYRK1A (human) (UniProt Q13627)
[13] = target: NTRK2 (human) (UniProt Q16620)
Chain of NTRK2 (human) (Q16620 whole entry, looked up): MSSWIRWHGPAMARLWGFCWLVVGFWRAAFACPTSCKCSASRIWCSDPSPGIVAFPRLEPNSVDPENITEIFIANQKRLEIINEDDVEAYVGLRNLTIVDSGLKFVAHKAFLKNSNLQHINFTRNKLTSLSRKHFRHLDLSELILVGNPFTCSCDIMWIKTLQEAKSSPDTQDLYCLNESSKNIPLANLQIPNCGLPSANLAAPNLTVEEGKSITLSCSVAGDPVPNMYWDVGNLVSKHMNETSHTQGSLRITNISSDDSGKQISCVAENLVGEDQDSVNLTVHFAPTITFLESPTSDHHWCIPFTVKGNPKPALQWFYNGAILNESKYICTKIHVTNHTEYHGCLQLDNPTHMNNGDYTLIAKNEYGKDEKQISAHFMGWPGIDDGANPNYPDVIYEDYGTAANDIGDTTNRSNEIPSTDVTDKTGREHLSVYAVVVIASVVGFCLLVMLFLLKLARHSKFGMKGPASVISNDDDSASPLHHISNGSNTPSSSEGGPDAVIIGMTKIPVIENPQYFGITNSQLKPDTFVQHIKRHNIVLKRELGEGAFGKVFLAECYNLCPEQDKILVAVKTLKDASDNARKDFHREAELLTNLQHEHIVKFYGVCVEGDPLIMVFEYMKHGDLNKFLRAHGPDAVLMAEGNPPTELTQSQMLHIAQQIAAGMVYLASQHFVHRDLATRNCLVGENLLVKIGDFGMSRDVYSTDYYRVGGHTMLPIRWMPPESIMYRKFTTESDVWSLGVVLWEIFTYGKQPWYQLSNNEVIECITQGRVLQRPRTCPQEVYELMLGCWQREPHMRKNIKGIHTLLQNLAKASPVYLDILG

[14] = target: CIT (human) (UniProt O14578)
[15] = target: YES1 (human) (UniProt P07947)
[16] = target: JAK1 JH1 JH2 (human) (UniProt P23458)
Chain of JAK1 JH1 JH2 (human) (P23458 whole entry, looked up): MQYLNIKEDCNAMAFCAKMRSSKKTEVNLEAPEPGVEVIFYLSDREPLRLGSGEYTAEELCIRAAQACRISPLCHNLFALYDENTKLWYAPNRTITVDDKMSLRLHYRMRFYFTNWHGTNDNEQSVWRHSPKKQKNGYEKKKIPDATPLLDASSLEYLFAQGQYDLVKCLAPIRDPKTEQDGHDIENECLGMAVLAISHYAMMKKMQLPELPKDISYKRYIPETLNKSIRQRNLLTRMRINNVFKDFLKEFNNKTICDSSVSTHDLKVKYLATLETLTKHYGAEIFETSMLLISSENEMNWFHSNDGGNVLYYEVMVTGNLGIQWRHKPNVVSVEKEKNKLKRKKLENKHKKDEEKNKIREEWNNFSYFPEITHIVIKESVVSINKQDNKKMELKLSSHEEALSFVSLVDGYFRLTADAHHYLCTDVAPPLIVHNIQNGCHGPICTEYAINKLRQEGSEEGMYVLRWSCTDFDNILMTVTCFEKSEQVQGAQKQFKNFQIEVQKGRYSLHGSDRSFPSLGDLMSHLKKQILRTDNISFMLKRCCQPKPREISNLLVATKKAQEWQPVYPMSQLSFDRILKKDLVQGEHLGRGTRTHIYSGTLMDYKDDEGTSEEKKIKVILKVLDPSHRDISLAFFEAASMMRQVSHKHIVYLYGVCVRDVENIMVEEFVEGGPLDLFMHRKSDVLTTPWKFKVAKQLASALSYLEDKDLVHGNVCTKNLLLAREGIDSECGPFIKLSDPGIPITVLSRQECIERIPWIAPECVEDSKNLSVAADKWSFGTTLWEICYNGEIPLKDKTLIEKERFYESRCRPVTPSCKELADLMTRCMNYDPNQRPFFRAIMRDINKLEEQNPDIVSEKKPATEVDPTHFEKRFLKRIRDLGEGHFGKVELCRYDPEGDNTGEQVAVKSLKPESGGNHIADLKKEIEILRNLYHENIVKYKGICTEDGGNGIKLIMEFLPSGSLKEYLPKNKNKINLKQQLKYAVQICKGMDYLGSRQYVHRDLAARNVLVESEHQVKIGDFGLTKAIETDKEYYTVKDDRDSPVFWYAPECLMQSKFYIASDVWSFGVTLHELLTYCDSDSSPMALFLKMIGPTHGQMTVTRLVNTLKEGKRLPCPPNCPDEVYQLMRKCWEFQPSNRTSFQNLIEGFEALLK

[17] = target: NTRK3 (human) (UniProt Q16288)
[18] = target: STK3 (human) (UniProt Q13188)
[19] = target: ROCK2 (human) (UniProt O75116)
[20] = target: RPS6KA4 KD1 KD2 (human) (UniProt O75676)
[21] = target: CSNK1G1 (human) (UniProt Q9HCP0)
[22] = target: RPS6KA6 KD1 KD2 (human) (UniProt Q9UK32)
[23] = target: PRKCH (human) (UniProt P24723)
Chain of PRKCH (human) (P24723 whole entry, looked up): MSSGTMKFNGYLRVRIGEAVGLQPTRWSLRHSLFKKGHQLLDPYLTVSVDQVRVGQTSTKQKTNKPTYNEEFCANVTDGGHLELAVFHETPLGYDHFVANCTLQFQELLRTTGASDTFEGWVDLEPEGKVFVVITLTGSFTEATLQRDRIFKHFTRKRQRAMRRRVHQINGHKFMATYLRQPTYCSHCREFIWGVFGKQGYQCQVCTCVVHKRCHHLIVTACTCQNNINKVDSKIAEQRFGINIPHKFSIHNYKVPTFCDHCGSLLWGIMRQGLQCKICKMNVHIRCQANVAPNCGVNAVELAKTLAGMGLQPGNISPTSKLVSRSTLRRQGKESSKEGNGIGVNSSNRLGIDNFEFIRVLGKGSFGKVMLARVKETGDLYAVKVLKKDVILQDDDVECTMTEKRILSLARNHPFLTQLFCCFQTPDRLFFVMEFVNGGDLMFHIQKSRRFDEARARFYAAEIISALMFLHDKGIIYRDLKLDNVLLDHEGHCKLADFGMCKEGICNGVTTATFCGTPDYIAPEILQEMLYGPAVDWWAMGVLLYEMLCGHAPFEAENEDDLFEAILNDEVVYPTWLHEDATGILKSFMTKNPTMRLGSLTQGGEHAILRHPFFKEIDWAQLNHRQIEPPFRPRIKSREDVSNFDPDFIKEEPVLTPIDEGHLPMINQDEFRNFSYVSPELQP

[24] = target: AKT2 (human) (UniProt P31751)
[25] = target: MARK3 (human) (UniProt P27448)
[26] = target: MARK1 (human) (UniProt Q9P0L2)
[27] = target: MAPKAPK2 (human) (UniProt P49137)
Chain of MAPKAPK2 (human) (P49137 whole entry, looked up): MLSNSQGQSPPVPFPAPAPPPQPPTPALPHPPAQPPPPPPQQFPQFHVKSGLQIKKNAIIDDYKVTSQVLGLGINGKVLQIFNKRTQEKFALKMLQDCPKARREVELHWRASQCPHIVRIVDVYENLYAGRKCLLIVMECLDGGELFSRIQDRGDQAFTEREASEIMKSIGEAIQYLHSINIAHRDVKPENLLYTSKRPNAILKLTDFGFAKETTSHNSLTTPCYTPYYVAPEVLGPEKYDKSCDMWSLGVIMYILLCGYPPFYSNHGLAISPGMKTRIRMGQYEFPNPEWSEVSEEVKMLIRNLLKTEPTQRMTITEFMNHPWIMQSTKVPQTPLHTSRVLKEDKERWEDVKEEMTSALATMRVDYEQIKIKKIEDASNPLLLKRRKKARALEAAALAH

[28] = target: TYRO3 (human) (UniProt Q06418)
[29] = target: LTK (human) (UniProt P29376)
[30] = target: MAPK10 (human) (UniProt P53779)
[31] = target: CLK1 (human) (UniProt P49759)
[32] = target: SGK1 (human) (UniProt O00141)
[33] = target: EPHA2 (human) (UniProt P29317)
Chain of EPHA2 (human) (P29317 whole entry, looked up): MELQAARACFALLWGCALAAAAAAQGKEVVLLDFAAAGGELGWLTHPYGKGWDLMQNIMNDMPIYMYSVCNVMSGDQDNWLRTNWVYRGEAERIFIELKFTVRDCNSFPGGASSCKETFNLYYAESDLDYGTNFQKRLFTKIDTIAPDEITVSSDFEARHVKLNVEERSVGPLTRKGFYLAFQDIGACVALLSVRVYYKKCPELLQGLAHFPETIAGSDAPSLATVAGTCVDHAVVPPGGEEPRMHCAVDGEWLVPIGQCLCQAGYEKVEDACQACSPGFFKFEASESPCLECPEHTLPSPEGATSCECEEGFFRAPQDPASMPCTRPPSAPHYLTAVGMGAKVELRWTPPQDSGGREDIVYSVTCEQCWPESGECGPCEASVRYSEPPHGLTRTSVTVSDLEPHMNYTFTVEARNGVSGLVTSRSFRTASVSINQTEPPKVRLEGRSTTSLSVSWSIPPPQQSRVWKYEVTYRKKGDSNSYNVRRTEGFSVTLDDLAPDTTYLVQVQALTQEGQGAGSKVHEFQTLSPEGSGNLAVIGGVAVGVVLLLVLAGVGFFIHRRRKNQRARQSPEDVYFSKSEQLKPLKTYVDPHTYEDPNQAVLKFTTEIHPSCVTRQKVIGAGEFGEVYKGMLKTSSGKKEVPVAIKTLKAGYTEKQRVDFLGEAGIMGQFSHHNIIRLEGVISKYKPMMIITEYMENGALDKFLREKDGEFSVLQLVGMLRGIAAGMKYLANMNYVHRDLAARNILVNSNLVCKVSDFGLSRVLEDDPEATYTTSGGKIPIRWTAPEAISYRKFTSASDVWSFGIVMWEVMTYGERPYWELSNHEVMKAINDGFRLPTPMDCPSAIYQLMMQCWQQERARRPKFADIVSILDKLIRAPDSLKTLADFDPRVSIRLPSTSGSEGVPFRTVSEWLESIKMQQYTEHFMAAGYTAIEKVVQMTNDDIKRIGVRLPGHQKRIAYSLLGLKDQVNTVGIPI

[34] = target: LYN (human) (UniProt P07948)
Chain of LYN (human) (P07948 whole entry, looked up): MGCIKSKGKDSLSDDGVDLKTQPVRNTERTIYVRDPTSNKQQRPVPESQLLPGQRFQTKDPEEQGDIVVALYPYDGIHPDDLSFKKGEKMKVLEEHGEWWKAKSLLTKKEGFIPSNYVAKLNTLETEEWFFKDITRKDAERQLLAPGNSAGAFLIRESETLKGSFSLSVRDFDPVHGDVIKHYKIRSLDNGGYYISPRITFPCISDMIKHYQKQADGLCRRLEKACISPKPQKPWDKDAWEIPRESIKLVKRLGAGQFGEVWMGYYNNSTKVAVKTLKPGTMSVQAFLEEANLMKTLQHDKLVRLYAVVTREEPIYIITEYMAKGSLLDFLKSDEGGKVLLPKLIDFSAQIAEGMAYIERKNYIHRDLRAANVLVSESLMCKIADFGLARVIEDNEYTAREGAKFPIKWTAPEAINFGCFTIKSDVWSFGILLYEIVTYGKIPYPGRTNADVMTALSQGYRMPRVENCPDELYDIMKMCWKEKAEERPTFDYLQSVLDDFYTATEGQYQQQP

CNC(=O)c1ccccc1Sc1ccc2c(/C=C/c3ccccn3)n[nH]c2c1
inhibition ([1]; compound 0.001 µM): 6.1%
inhibition ([1]; compound 0.02 µM): 4.2%
inhibition ([2]; compound 0.001 µM): -7.6%
inhibition ([2]; compound 0.02 µM): -5.8%
inhibition ([3]; compound 0.001 µM): -4.2%
inhibition ([3]; compound 0.02 µM): -3.6%
inhibition ([4]; compound 0.001 µM): 0.4%
inhibition ([4]; compound 0.02 µM): 1.4%
inhibition ([5]; compound 0.001 µM): -4.3%
inhibition ([5]; compound 0.02 µM): -1.6%
inhibition ([6]; compound 0.001 µM): 3.7%
inhibition ([6]; compound 0.02 µM): 3.2%
inhibition ([7]; compound 0.001 µM): -4%
inhibition ([7]; compound 0.02 µM): -3.9%
inhibition ([8]; compound 0.001 µM): -4.9%
inhibition ([8]; compound 0.02 µM): -0.2%
inhibition ([9]; compound 0.001 µM): -0.6%
inhibition ([9]; compound 0.02 µM): 10.8%
inhibition ([10]; compound 0.001 µM): -7%
inhibition ([10]; compound 0.02 µM): -4.4%
inhibition ([11]; compound 0.001 µM): -14.2%
inhibition ([11]; compound 0.02 µM): -4.7%
inhibition ([12]; compound 0.001 µM): 8%
inhibition ([12]; compound 0.02 µM): -5.5%
inhibition ([13]; compound 0.001 µM): 5.8%
inhibition ([13]; compound 0.02 µM): 10.5%
inhibition ([14]; compound 0.001 µM): -2.2%
inhibition ([14]; compound 0.02 µM): -4.4%
inhibition ([15]; compound 0.001 µM): 5.9%
inhibition ([16]; compound 0.001 µM): -7.4%
inhibition ([16]; compound 0.02 µM): -3.3%
inhibition ([17]; compound 0.001 µM): 2.6%
inhibition ([17]; compound 0.02 µM): 12.9%
inhibition ([18]; compound 0.001 µM): -3.8%
inhibition ([18]; compound 0.02 µM): -2.3%
inhibition ([19]; compound 0.001 µM): 1.6%
inhibition ([19]; compound 0.02 µM): -4.7%
inhibition ([20]; compound 0.001 µM): -7.2%
inhibition ([20]; compound 0.02 µM): -1.1%
inhibition ([21]; compound 0.001 µM): -4.5%
inhibition ([21]; compound 0.02 µM): -3.6%
inhibition ([22]; compound 0.001 µM): -7%
inhibition ([22]; compound 0.02 µM): -0.1%
inhibition ([23]; compound 0.001 µM): 4.5%
inhibition ([23]; compound 0.02 µM): 6.2%
inhibition ([24]; compound 0.001 µM): 0.8%
inhibition ([24]; compound 0.02 µM): -4.1%
inhibition ([25]; compound 0.001 µM): -1%
inhibition ([26]; compound 0.001 µM): -3.2%
inhibition ([27]; compound 0.001 µM): 2.3%
inhibition ([27]; compound 0.02 µM): -0.8%
inhibition ([28]; compound 0.001 µM): -1.2%
inhibition ([28]; compound 0.02 µM): -2%
inhibition ([29]; compound 0.001 µM): 2.1%
inhibition ([29]; compound 0.02 µM): 0.9%
inhibition ([30]; compound 0.001 µM): -5%
inhibition ([30]; compound 0.02 µM): -4.4%
inhibition ([31]; compound 0.001 µM): 6.6%
inhibition ([31]; compound 0.02 µM): -7.5%
inhibition ([32]; compound 0.001 µM): 11.3%
inhibition ([32]; compound 0.02 µM): -1.8%
inhibition ([33]; compound 0.001 µM): -8.3%
inhibition ([33]; compound 0.02 µM): -6.2%
inhibition ([34]; compound 0.001 µM): -2.2% and 4.1%
inhibition ([34]; compound 0.02 µM): 16% and 9.7%

Cc1ccc(Nc2nccc(N(C)c3ccc4c(C)n(C)nc4c3)n2)cc1S(N)(=O)=O
inhibition ([1]; compound 0.02 µM): 10.3%
inhibition ([1]; compound 0.2 µM): 47.3%
inhibition ([2]; compound 0.02 µM): -4.8%
inhibition ([2]; compound 0.2 µM): -1.2%
inhibition ([3]; compound 0.02 µM): -1.1%
inhibition ([3]; compound 0.2 µM): -1.7%
inhibition ([4]; compound 0.02 µM): 2.7%
inhibition ([4]; compound 0.2 µM): 1.5%
inhibition ([5]; compound 0.02 µM): -1.6%
inhibition ([5]; compound 0.2 µM): 1.3%
inhibition ([6]; compound 0.02 µM): 5.3%
inhibition ([6]; compound 0.2 µM): 5.1%
inhibition ([7]; compound 0.02 µM): 3.3%
inhibition ([7]; compound 0.2 µM): 27.4%
inhibition ([8]; compound 0.02 µM): 2.6%
inhibition ([8]; compound 0.2 µM): 7.3%
inhibition ([9]; compound 0.02 µM): 17.8%
inhibition ([9]; compound 0.2 µM): 69.7%
inhibition ([10]; compound 0.02 µM): -1.4%
inhibition ([10]; compound 0.2 µM): -1.9%
inhibition ([11]; compound 0.02 µM): -4.1%
inhibition ([11]; compound 0.2 µM): -6.3%
inhibition ([13]; compound 0.02 µM): 5.5%
inhibition ([13]; compound 0.2 µM): 14.7%
inhibition ([14]; compound 0.02 µM): -2.3%
inhibition ([14]; compound 0.2 µM): 0.3%
inhibition ([15]; compound 0.02 µM): 13.3%
inhibition ([15]; compound 0.2 µM): 44.3%
inhibition ([16]; compound 0.02 µM): -2.2%
inhibition ([16]; compound 0.2 µM): 0.8%
inhibition ([17]; compound 0.02 µM): 5.4%
inhibition ([17]; compound 0.2 µM): 9.1%
inhibition ([18]; compound 0.02 µM): -1.9%
inhibition ([18]; compound 0.2 µM): -4.2%
inhibition ([19]; compound 0.02 µM): -3.7%
inhibition ([19]; compound 0.2 µM): -1.3%
inhibition ([20]; compound 0.02 µM): -2.4%
inhibition ([20]; compound 0.2 µM): 3.7%
inhibition ([21]; compound 0.02 µM): -0.9%
inhibition ([21]; compound 0.2 µM): -1%
inhibition ([22]; compound 0.02 µM): 1.2%
inhibition ([22]; compound 0.2 µM): 1.7%
inhibition ([23]; compound 0.02 µM): 6.7%
inhibition ([23]; compound 0.2 µM): 4.3%
inhibition ([24]; compound 0.02 µM): 4.7%
inhibition ([24]; compound 0.2 µM): 3%
inhibition ([25]; compound 0.02 µM): 1.7%
inhibition ([25]; compound 0.2 µM): -3.6%
inhibition ([26]; compound 0.02 µM): 4.6%
inhibition ([26]; compound 0.2 µM): 3%
inhibition ([27]; compound 0.02 µM): 5.5%
inhibition ([27]; compound 0.2 µM): 1.5%
inhibition ([28]; compound 0.02 µM): 2.3%
inhibition ([28]; compound 0.2 µM): 10.6%
inhibition ([29]; compound 0.02 µM): 5.1%
inhibition ([29]; compound 0.2 µM): 11.9%
inhibition ([31]; compound 0.02 µM): -4.3%
inhibition ([31]; compound 0.2 µM): 6.6%
inhibition ([32]; compound 0.02 µM): -0.7%
inhibition ([32]; compound 0.2 µM): -4.1%
inhibition ([33]; compound 0.02 µM): -5%
inhibition ([33]; compound 0.2 µM): -2.8%
inhibition ([34]; compound 0.02 µM): 16.6% and 20.8%
inhibition ([34]; compound 0.2 µM): 62.4% and 63.7%
